The source of these data is publication PMC7766762, “New Eudesmane-Type Sesquiterpene Glycosides from the Leaves of Aster koraiensis” (Plants, 2020).

Data set [1] in a line: Cell viability (MTT assay) in LPS-treated RAW 264.7 macrophages. The data set is classed as cell-based. The settings on record: mouse, RAW 264.7 macrophages treated with LPS, compound 100 μM and LPS 1 μg/mL, pretreated 1 h, incubated 24 h, read-out: Cell Viabilities (%). The protocol: [table] Cell viability and nitrite levels were measured using MTT and Griess reaction assays, respectively.
A general note: Tetrazolium assays rely on reduction of a dye to a coloured formazan, in cell work by metabolically active cells.

Data set [2] relates to LPS-stimulated PGE2 production in RAW 264.7 macrophages. Put plainly: LPS-induced PGE2 production in RAW 264.7 macrophages (EIA kit). The data set is classed as cell-based. To be noted: for IC50 / inhibition at 100 µM: Mus musculus, RAW264.7, RAW 264.7; for IC50: LPS 1 μg/mL, 24 h; for inhibition at 100 µM: compound 100 μM and LPS 1 μg/mL, pretreated 1 h, incubated 24 h, read-out: Inhibition Rate (%) PGE2. The procedure:
(§1) All the isolates 1–9 obtained from the leaves of A. koraiensis were evaluated for their inhibitory effects of LPS-stimulated NO and PGE2 production in RAW 264.7 macrophages at non-toxic concentrations (Table 3).
(§2) Figure 5 Inhibitory effects of compound 7 on LPS-stimulated NO (A) and PGE2 productions (B) in RAW 264.7 macrophages. Cells were pretreated with different concentrations (25, 50, or 100 μM) of compound 7 for 1 h, then with LPS (1 μg/mL), and then were incubated for 24 h. l-N^6-(1-Iminoethyl)lysine (l-NIL, 10 μM) and N-[2-(cyclohexyloxy)-4-nitrophenyl]-methanesulfonamide (NS-398, 10 μM) were used as positive NO and PGE2 production inhibitors, respectively.
PGE2 levels in cell culture mediums were determined using EIA kits (R&D Systems, MN) as reported in the previous paper.

Data set [3] deals with LPS-stimulated NO production in RAW 264.7 macrophages. Put plainly: LPS-induced NO production in RAW 264.7 macrophages (Griess reaction). The format is cell-based. The settings on record: for IC50 / inhibition at 100 µM: Mus musculus, RAW264.7, RAW 264.7; for IC50: LPS 1 μg/mL, 24 h; for inhibition at 100 µM: compound 100 μM and LPS 1 μg/mL, pretreated 1 h, incubated 24 h, read-out: Inhibition Rate (%) NO. The procedure: as §1, §2
Cell viability and nitrite levels were measured using MTT and Griess reaction assays, respectively.
(Nitrite, measured by Griess reagent, commonly stands in for NO production.)

Where [4] appears, read: LPS-stimulated RAW 264.7 cells, non-toxic concentrations.

As a reminder, the IC50 is the concentration at which inhibition is half-maximal. As a reminder, the inhibition is the drop in the measured response relative to a control, in per cent. Usually melting point stands for the temperature of the solid-liquid transition.

Entries after “also recorded” stand apart in the source; their conditions may differ. A value given as a limit tells only on which side of the number the result lay.

`CC1=CCC(OC2OC(CO)C(O)C(O)C2O)C2(C)C(O)CC(C(C)C)C(OC3OC(CO)C(O)C(O)C3O)C12` [Compound 1, (1R,5S,6R,7S,9S,10S)-1,6,9-trihydroxy-eudesm-3-ene-1,6-di-O-β-D-glucopyranoside] had a melting point of 167.2 °C. In addition, the viability at 24 h, 100 μM in data set [1] is 102%. In data set [2], the IC50 was more than 100 µM and the inhibition at 100 µM came out at 0%. Moreover, in data set [3], the IC50 is more than 100 µM and the inhibition at 100 µM was determined as 1.79%.

With `CC1=CC[C@@H](O)[C@@]2(C)[C@H]1[C@H](O[C@@H]1O[C@H](CO)[C@@H](O)[C@H](O)[C@H]1O)[C@H](C(C)C)C[C@@H]2O` [Compound 2, (1R,5S,6R,7S,9S,10R)-1,6,9-trihydroxy-eudesm-3-ene-6-O-β-D-glucopyranoside], the viability at 24 h, 100 μM in data set [1] amounted to 105%. Also, in data set [2], the half-maximal inhibitory concentration (IC50) is more than 100 µM and the inhibition at 100 µM came out at 0%. In addition, in data set [3], the IC50 was more than 100 µM and the inhibition at 100 µM was determined as 3.2%.

Turning to `CC1=CCC(OC2OC(CO)C(O)C(O)C2O)C2(C)C(O)CC(C(C)(C)O)C(OC3OC(CO)C(O)C(O)C3O)C12` [Compound 3, (1R,5S,6S,7R,9S,10S)-1,6,9,11-tetrahydroxy-eudesm-3-ene-1,6-di-O-β-D-glucopyranoside], the melting point was 230 °C. For the same compound, the viability at 24 h, 100 μM in data set [1] was 94%. In data set [2], the IC50 was more than 100 µM and the inhibition at 100 µM was 10.5%. In addition, in data set [3], the IC50 was more than 100 µM and the inhibition at 100 µM is 4.66%.

With `CC1=CC[C@@H](O)[C@@]2(C)[C@H]1[C@H](O[C@@H]1O[C@H](CO)[C@@H](O)[C@H](O)[C@H]1O)[C@H](C(C)(C)O)C[C@@H]2O` [Compound 4, (1R,5S,6S,7R,9S,10R)-1,6,9,11-tetrahydroxy-eudesm-3-ene-6-O-β-D-glucopyranoside], the viability at 24 h, 100 μM in data set [1] worked out at 102%. In data set [2], the IC50 was more than 100 µM and the inhibition at 100 µM turned out to be 6.15%. Also, in data set [3], the IC50 was more than 100 µM and the inhibition at 100 µM stood at 1.31%.

As for `CC1=CC[C@@H](O)[C@]2(C)[C@@H](OC(=O)/C=C/c3ccc(O)cc3)C[C@@H](C(C)C)[C@@H](O[C@@H]3O[C@H](CO)[C@@H](O)[C@H](O)[C@H]3O)[C@@H]12` [Compound 5, (1R,5S,6R,7S,9S,10R)-9-O-(E-p-coumaroyl)-1,6,9-trihydroxy-eudesm-3-ene-6-O-β-D-glucopyranoside], in data set [1], the viability at 24 h, 100 μM came to 104%. Moreover, in data set [2], the IC50 was more than 100 µM and the inhibition at 100 µM amounted to 0%. Besides, in data set [3], the IC50 is more than 100 µM and the inhibition at 100 µM is 8.39%.

For the compound `CC1=CC[C@@H](O)[C@]2(C)[C@@H](OC(=O)/C=C\c3ccc(O)cc3)C[C@@H](C(C)C)[C@@H](O[C@@H]3O[C@H](CO)[C@@H](O)[C@H](O)[C@H]3O)[C@@H]12` [Compound 6, (1R,5S,6R,7S,9S,10R)-9-O-(Z-p-coumaroyl)-1,6,9-trihydroxy-eudesm-3-ene-6-O-β-D-glucopyranoside], in data set [1], the viability at 24 h, 100 μM is 108%. The IC50 in data set [2] and in data set [3] was more than 100 µM in each case. The inhibition at 100 µM in data set [2] turned out to be 2.16%; in data set [3], 7.01%.

As for `COc1cc(/C=C/C(=O)O[C@H]2C[C@@H](C(C)C)[C@@H](O[C@@H]3O[C@H](CO)[C@@H](O)[C@H](O)[C@H]3O)[C@H]3C(C)=CC[C@@H](O)[C@]23C)ccc1O` [Compound 7, (1R,5S,6R,7S,9S,10R)-9-O-(E-feruloyl)-1,6,9-trihydroxy-eudesm-3-ene-6-O-β-D-glucopyranoside], in data set [1], the viability at 24 h, 100 μM was determined as 89.3%. Also, the “Inhibitory effect on PGE2 production (in words)” value in data set [2] (setting [4]) is on record as “weak inhibitory effects; also recorded: weak inhibitory activities”. Besides, in data set [2], the IC50 is more than 100 µM and the inhibition at 100 µM was determined as 41.3%. In data set [3] (setting [4]), the “Inhibitory effect on NO production (in words)” value is “weak inhibitory effects; also recorded: weak inhibitory activities”. In data set [3], the midpoint of inhibition, the IC50, lay at 95.7 µM and the inhibition at 100 µM is 53.1%.

In the case of `O=C(/C=C/c1ccc(O)c(O)c1)O[C@@H]1C[C@](O)(C(=O)O)C[C@@H](OC(=O)/C=C/c2ccc(O)c(O)c2)[C@H]1O` [Compound 8, 3,5-dicaffeoylquinic acid], the viability at 24 h, 100 μM in data set [1] came out at 93.4%. Also, in data set [2], the half-inhibitory concentration (IC50) was more than 100 µM and the inhibition at 100 µM was 1.27%. Further, in data set [3], the half-maximal inhibitory concentration (IC50) was more than 100 µM and the inhibition at 100 µM stood at 6.25%.

For `O=C(/C=C/c1ccc(O)c(O)c1)O[C@@H]1[C@H](O)C[C@@](O)(C(=O)O)C[C@H]1OC(=O)/C=C/c1ccc(O)c(O)c1` [Compound 9, 4,5-dicaffeoylquinic acid], in data set [1], the viability at 24 h, 100 μM worked out at 100%. Also, the IC50 in data set [2] and in data set [3] was more than 100 µM throughout. Also, the inhibition at 100 µM in data set [2] came to 20.4%; in data set [3], 4.64%.
